The source of these data is patent publication US7838490B2, “Methods and compositions for inhibition of vascular permeability” (University of Virginia Patent Foundation, priority 2005, dated 2010).

Experiment [1] has as its system Erk. As to the kind of experiment: phospho-Erk staining of lung sections from LPS-treated mice. It is filed as in vivo. The following applies: 6 h, peptides 1 mg, UO126 0.5 ml of 70 μM. How it is done:
A. Mice were injected with Nck-blocking peptide (1 mg; comprising SEQ ID NO:7), control peptide (1 mg) or UO126 (0.5 ml of 70 μM), then treated with or without LPS as in FIG. 1. At 6 hours, the lungs were removed, sectioned, and stained for activated Erk using pT202/pY204 antibody. Small arrows indicate unidentified cells in control lungs that stain positively. Large arrows indicate conduit blood vessels.
C. Lungs from mice pretreated with 1 mg/ml PIX blocking peptide and exposed to LPS as in FIG. 3A were stained for phospho-Erk. […] Arrow indicates a conduit vessel.
Control animals inhaled saline.
Mouse lungs were inflated with an intratracheal instillation of PFA 4% at a constant pressure (20 cm H2O) for 15 minutes. Next, lungs were removed and fixed in PFA 4% for 24 h and embedded in paraffin. Sections (5 μm) were cut for IHC and treated with antigen unmasking solution (Vector Laboratories). Sections were stained with monoclonal rabbit anti p-ERK (1:400 Cell Signaling) overnight and detected with Vectastain Elite Kit (Vector Laboratories). Visualization was done with DAB (Dako Corp) and couterstained with hematoxylin. Images were acquired using 20 or 40× objective on a microscope (model BX51; Olympus) equipped with a digital camera (model DP70 Olympus) using ImagePro software program.

Experiment [2] deals with Erk. As to the kind of experiment: Erk activation in BAECs (Western blotting, immunostaining). In kind it is cell-based, bovine. Particulars: 20 μg/ml peptide or 25 μM U0126 for 1 hour; for immunostaining for activated Erk: then 25 ng/ml VEGF 30 minutes; for activation of Erk by VEGF (Western blotting): then VEGF 30 min. How it is done: After 1 hour, 25 ng/ml VEGF was added for 30 minutes. Cells were then fixed and stained for activated Erk.
B. Cells as in A were extracted and analyzed for Erk phosphorylation by Western blotting.
D. BAECs were incubated with peptides and stimulated with VEGF as in C, then lysed and analyzed for Erk activation by Western blotting.
Coverslips were washed and mounted using FluoroMount (Invitrogen).
Background: A western blot detects proteins with antibodies after separation by electrophoresis.

In experiment [3] the test system is mice exposed to aerosolized LPS. As to the kind of experiment: LPS-induced pulmonary microvascular permeability (Evans blue dye extravasation).
Protocol: B. Mice inhaled LPS with control or Nck blocking peptide as in A. At 6 hours, they were injected with Evans blue dye and leakage into the lung assayed at 1 h.
B. Mice received intraperitoneal injections with the indicated amounts of the PIX blocking or control peptides. They were treated with aerosolized LPS for 6 h then leakage of Evans blue dye into the lung assayed as described in Methods.
Wild type male mice (C57B1/6, 8 to 12 weeks of age, Jackson Labs, Bar Harbor, Me.) were exposed to aerosolized LPS (Salmonella enteritidis, Sigma Co., St. Louis, Mo.) for 30 min. […] Control animals inhaled saline. Some mice received intraperitoneal (ip) injection of the PAK inhibitory or control peptides 30 min prior to treatment. […] Permeability was analyzed at 6 h using the Evans blue dye extravasation technique (Green et al., 1988). Briefly, Evans blue (20 mg/kg; Sigma) was injected intravenously 30 minutes prior to euthanasia. Lungs were perfused through the spontaneously beating right ventricle to remove intravascular dye. Lungs were removed and Evans blue was extracted as described (Peng et al., 2004). The absorption of Evans blue was measured at 620 nm and corrected for the presence of heme pigments: A620 (corrected)=A620−(1.426×A740+0.030) (Wang le et al., 2002). Extravasated Evans blue was calculated against a standard curve (micrograms Evans blue dye per gram lung).
The test system of experiment [4] is actin cytoskeleton. The following applies: BAECs; 20 μg/ml peptide; bFGF 60 min.
Protocol: E. Cells incubated with peptides as in C and stimulated with bFGF for 60 min, then stained for F-actin.
Cells were fixed for 60 minutes in 3.5% formaldehyde, washed, and permeabilized for 10 minutes in 0.2% TX100. Coverslips were blocked with PBS containing 10% goat serum for 60 minutes, then probed 8 hours at 4° C. with 200 μl containing the following antibodies: phospho-ERK at 1:500; phospho-MEK at 1:500; phospho-PAK at 1:500; phospho-MLC at 1:500 (all from BioSource International); βPIX at 1:200 or GIT1 at 1:200 (Santa Cruz Biotechnology). Coverslips were washed and probed overnight at 4° C. with 200 μl anti-mouse IgG-Alexa 568 or anti-rabbit IgG-Alexa 488 (Molecular Probes) at 1:1000. Coverslips were washed and mounted using FluoroMount (Invitrogen).
Experiment [5] has as its target T1, CD2AP (Homo sapiens, UniProt Q9Y5K6).
T1 construct: endogenous in cells
As to the kind of experiment: Pull-down from cell lysates with biotin-tagged peptides on streptavidin beads. In kind it is binding. Particulars: higher amounts of cell lysates; not shown.

The target of experiment [6] is T2, DOCK180 (Homo sapiens, UniProt Q14185).
T2 construct: endogenous in cells
The description is as above. Particulars: higher amounts of cell lysates; not shown. In kind it is binding.

The target of experiment [7] is T3, cortactin (Homo sapiens, UniProt Q14247).
T3 construct: endogenous in cells
T3 sequence (Q14247 1-550): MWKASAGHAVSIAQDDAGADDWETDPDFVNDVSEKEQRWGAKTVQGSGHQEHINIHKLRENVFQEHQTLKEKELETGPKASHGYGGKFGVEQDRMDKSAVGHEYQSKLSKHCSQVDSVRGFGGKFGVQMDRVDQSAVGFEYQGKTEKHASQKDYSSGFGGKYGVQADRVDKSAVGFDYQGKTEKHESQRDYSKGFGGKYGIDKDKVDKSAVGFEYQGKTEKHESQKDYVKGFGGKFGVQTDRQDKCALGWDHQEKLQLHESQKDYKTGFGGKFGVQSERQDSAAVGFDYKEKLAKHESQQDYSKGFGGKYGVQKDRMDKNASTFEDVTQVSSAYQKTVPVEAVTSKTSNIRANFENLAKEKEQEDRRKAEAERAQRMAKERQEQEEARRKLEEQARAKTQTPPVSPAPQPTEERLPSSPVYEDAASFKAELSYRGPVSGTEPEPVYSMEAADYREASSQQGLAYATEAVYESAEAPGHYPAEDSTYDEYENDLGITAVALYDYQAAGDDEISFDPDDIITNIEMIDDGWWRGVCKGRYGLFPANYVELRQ
Described as above. The following applies: Western blotting. It is filed as binding.
Protocol: (§1) B. Cell lysates were incubated with peptides immobilized on streptavidin beads and the whole cell lysates (WCL) or bound proteins analyzed by Western blotting.
(§2) Cells were stimulated, washed with cold PBS, extracted with 0.5 ml cold immunoprecipitation (IP) buffer (20 mM Tris pH 7.6, 0.5% NP40, 250 mM NaCl, 5 mM EDTA, 3 mM EGTA; plus Sigma protease and phosphatase inhibitor cocktails) for 10 min. They were passed through an 18 gauge needle 3× and centrifuged for 10 min at 12,000×g in a microfuge. […] Anti-GIT1 and anti-βPIX were from Santa Cruz Biotechnology. […] For binding to peptides, 25 μg of biotin-tagged peptides were incubated with 25 μl of streptavidin beads for 30 min, then rinsed and incubated with 0.5 cell lysates for 30 min. Bound proteins were detected by Western blotting with the indicated antibodies. For βPIX, cells were transfected with HA-PIX and blots probed using anti-HA. Proteins were electrophoretically transferred to PVDF membranes, blocked with 5% milk in Tris-buffered saline (TBS) and probed overnight with primary antibodies in the same buffer. Membranes were washed 4×, probed with secondary antibodies for 2 h, and then visualized using chemiluminescence (ECL, Amersham).

The subject of experiment [8] is other SH3-containing proteins. The following applies: cell lysates; Western blotting.
Protocol: as §1, §2
In experiment [9] the target is T4, βPIX (Homo sapiens, UniProt Q14155).
T4 construct: expressed in transfected cells
T4 sequence (Q14155 1-646 isoform Q14155-1): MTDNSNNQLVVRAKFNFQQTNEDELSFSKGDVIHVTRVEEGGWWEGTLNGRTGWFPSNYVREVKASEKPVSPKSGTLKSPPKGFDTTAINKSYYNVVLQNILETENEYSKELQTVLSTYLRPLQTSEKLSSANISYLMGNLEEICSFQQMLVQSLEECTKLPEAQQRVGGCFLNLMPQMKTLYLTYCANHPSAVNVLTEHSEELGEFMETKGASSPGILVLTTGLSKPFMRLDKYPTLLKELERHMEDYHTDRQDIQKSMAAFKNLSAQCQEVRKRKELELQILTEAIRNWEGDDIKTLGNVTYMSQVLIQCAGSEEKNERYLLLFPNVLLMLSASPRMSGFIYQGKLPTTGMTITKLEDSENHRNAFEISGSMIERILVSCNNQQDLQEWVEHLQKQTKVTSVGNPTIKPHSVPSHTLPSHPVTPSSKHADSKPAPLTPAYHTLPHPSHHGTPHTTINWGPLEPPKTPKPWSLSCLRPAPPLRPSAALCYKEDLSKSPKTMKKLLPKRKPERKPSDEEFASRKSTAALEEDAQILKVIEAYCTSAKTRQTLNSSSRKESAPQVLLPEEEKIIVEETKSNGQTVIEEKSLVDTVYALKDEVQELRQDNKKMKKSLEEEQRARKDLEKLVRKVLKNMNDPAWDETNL
As to the kind of experiment: Pull-down from cell lysates with biotin-tagged peptides on streptavidin beads. It is filed as binding. The following applies: Western blotting.
Protocol: as §1, §2

Experiment [10] relates to HUVECs. As to the kind of experiment: In vitro permeability: HRP leakage across HUVEC monolayer. The following applies: peptide 20 μg/ml, not shown. It is filed as cell-based, human. How it is done:
B. HUVECs were transfected with siRNA oligonucleotides specific to GIT1 or with control, scrambled siRNA. Total cell lysates at 72 hours were analyzed for GIT1 expression by Western blotting (top). Cells on filters were analyzed for permeability to HRP after treatment with VEGF (50 ng/ml), histamine (10 μM) or thrombin (0.2 U/ml).
The βPIX and GIT1 constructs were obtained from Dr. A. F. Horwitz. The ΔGBD βPIX (mutated for GIT1 binding) and ΔSHD mutant of GIT1 (mutated for PIX and MEK binding) were as described (Zhang et al., 2003). Dominant negative MEK1 was as described (Renshaw et al., 1997). GIT1 Smartpool siRNA oligos against human sequence were obtained from Dharmacon and the experiments were carried out in HUVECs. The Smartpool mixture contained 4 different siRNA oligos. The four different sense sequences are:
BAECs on FN-coated 3 μm filters at near-confluence were transfected with 0.5 μg cDNA using Effectene as described above. At 48 h, cells were pre-treated for 60 min with PAK peptides as indicated. For some experiments, cells were nucleofected, then plated on filters and grown to confluence for 48 hr. Filters were then placed in outer wells with 500 μl fresh DMEM without phenol red or serum. To each filter well was added 200 μl medium plus 50 μl of 1.5 μg/ml horseradish peroxidase (HRP) with or without cytokines as described. […]

For experiment [11], the system named is interaction between PAK and PIX. The following applies: BAECs, 20 μg/ml peptide 1 h, VEGF 30 min.
Protocol: BAECs were incubated with PIX blocking or control peptide at 20 μg/ml for 1 h, then stimulated with VEGF for 30 min. Cells were rinsed, lysed, and βPIX immunoprecipitated. The IP's were analyzed by Western blotting.
Cells were stimulated, washed with cold PBS, extracted with 0.5 ml cold immunoprecipitation (IP) buffer (20 mM Tris pH 7.6, 0.5% NP40, 250 mM NaCl, 5 mM EDTA, 3 mM EGTA; plus Sigma protease and phosphatase inhibitor cocktails) for 10 min. They were passed through an 18 gauge needle 3× and centrifuged for 10 min at 12,000×g in a microfuge. Supernatants were precleared with 25 μl of Protein G-agarose beads and incubated with the indicated primary antibody for 2 hrs at 4°. […] 25 μl of protein A- or protein G-agarose beads were added and incubated for another 2 h while rotating at 4° C. Beads were sedimented and washed 3× with 0.5 ml IP buffer and separated by SDS-PAGE. […] Proteins were electrophoretically transferred to PVDF membranes, blocked with 5% milk in Tris-buffered saline (TBS) and probed overnight with primary antibodies in the same buffer. Membranes were washed 4×, probed with secondary antibodies for 2 h, and then visualized using chemiluminescence (ECL, Amersham).
Experiment [12] concerns BAECs. As to the kind of experiment: In vitro permeability: HRP leakage across BAEC monolayer on 3 μm filters. The following applies: bovine endothelial cells; peptide 20 μg/ml. In kind it is cell-based. How it is done:
C. […] Cells were left untreated or stimulated for […] with 25 ng/ml VEGF, 50 ng/ml bFGF, or 10 μM histamine. Leakage of horseradish peroxidase (HRP) across the filter was assayed as described in Methods.
A. BAECs on filters with 3.0 μm pores were pretreated with 20 μg/ml PIX blocking or control peptides for 1 hour, then stimulated with VEGF for 30 minutes. HRP movement across the monolayer was assayed as described in Methods.
BAECs on FN-coated 3 μm filters at near-confluence were transfected with 0.5 μg cDNA using Effectene as described above. At 48 h, cells were pre-treated for 60 min with PAK peptides as indicated. For some experiments, cells were nucleofected, then plated on filters and grown to confluence for 48 hr. Filters were then placed in outer wells with 500 μl fresh DMEM without phenol red or serum. To each filter well was added 200 μl medium plus 50 μl of 1.5 μg/ml horseradish peroxidase (HRP) with or without cytokines as described. After 30 min, filters were removed and fixed, and the medium in the lower wells assayed for HRP as described (Stockton et al., 2004). Values were normalized to control, untreated wells.

T1 sequence (Q9Y5K6 whole entry, species assumed): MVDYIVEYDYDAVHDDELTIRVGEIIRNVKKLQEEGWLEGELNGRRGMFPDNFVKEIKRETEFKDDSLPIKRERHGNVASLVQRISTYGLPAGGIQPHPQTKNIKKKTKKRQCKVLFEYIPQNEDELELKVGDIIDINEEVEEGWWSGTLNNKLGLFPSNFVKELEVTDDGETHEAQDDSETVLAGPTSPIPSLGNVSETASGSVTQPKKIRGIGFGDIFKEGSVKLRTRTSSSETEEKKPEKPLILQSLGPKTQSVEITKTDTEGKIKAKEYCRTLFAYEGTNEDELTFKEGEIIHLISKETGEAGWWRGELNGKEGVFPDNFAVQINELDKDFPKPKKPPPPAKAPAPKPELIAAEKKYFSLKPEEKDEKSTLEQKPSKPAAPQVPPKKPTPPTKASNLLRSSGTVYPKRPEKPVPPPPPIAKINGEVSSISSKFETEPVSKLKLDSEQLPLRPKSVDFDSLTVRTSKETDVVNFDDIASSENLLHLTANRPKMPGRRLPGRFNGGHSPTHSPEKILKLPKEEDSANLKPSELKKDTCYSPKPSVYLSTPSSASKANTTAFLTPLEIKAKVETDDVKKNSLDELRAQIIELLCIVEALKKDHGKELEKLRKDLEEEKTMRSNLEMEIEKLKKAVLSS

As for `N#CC(=C(/N)Sc1ccccc1N)/C(C#N)=C(\N)Sc1ccccc1N` [U0126, reference compound], in [1], the “Erk activation (phospho-Erk staining) in lung sections” value is given as “blocked Erk activation throughout the tissue”. Besides, in experiment [2], the “immunostaining for activated Erk” value is given as “nearly eliminated” and the “activation of Erk by VEGF (Western blotting)” value is listed as “blocked”. In addition, the “induction of vascular leak by LPS (Evans blue dye)” value in experiment [3] (0.5 ml of 70 μM U0126 ip, 6 h) is listed as “significantly blocked”.
Consider “YGRKKRRQRRRGKPPAPPMRNTSTM (listed as Homo sapiens) [Nck-blocking peptide]”, for which the “Erk activation (phospho-Erk staining) in lung sections” value in [1] is recorded as “largely prevented”. Moreover, in experiment [2], the “immunostaining for activated Erk” value was “decreased phosphoErk at cell-cell borders” and the “activation of Erk by VEGF (Western blotting)” value is listed as “blocked”. Also, in [3] (1 mg peptide ip prior to aerosolized LPS, assayed at 6 h), the “leakage of Evans blue dye into the lung after inhalation of LPS” value is reported as “strongly inhibited”.
“YGRKKRRQRRRGPPPVIAPRPEHTKSVYTR-K+Biotin [PIX-binding peptide]”: in [4], the “increase in actin stress fibers in response to bFGF or VEGF” value was “blocked”. Further, the “binding of CD2AP to immobilized peptide” value in [5] is listed as “weak, specific binding”. In addition, the “binding of DOCK180 to immobilized peptide” value in experiment [6] is “weak but nonspecific binding”. Also, in experiment [7], the “binding of cortactin to immobilized peptide” value is “weak but reproducible binding”. The “binding of other SH3-containing proteins to immobilized peptide” value in [8] is “no binding”. Further, the “binding of βPIX to immobilized peptide” value in experiment [9] is reported as “bound βPIX with high efficiency”. The “block of the increase in permeability in vitro in response to VEGF” value in experiment [10] and in experiment [12] was “approximately 80%” each time. In addition, the “amount of PIX in βPIX immunoprecipitates” value in experiment [11] is given as “no effect”. Also, the “reduction of PAK in βPIX precipitates” value in [11] (peptide washed out before lysis) is recorded as “about 70%”.
